Read-outs that look alike come from different tables or passages of the source.
Molecular target: human recombinant TRPV1 (Homo sapiens (Human), UniProt Q8NER1)
Test: TRPV1 pH-Based Assay (Protocol 2, Ca2+ response in TRPV1/CHO cells, Fura-2)
Type: cell-based
Procedure: For Protocol 2, a Chinese Hamster Ovary cell line (CHO) that has been engineered to constitutively express human recombinant TRPV1 was used (TRPV1/CHO cells). The TRPV1/CHO cell line was generated as described below.
TRPV1/CHO cells were seeded in the 96-well clear-bottom black-wall plate (Nunc) at densities of 1-2×10^4 cells/well and grown in 100 μL of culture medium (alpha-MEM supplemented with 10% FBS, 20 mM HEPES, 1 mg/mL geneticin and 1% antibiotic-antimycotic mixed stock solution) for 1-2 days before the experiment.
(2) The 96-well plate was incubated at 37° C. for 45 min.
(3) The loading buffer was removed from each well. […] The wells were then refilled with 80 μL of measuring buffer.
(4) After an incubation at 4° C. for 15 min, the 96-well plate was transferred to FDSS-3000 (Hamamatsu Photonics, Japan).
(5) The Fura-2 fluorescent intensity was monitored at a wavelength of 340 nm and at 380 nm, respectively, at a rate of 0.5 Hz for a total of 240 seconds. After 16 time points (32 sec) of baseline detection, 20 μL of agonist solution was added to each well. The final volume was 100 μL/well.
(6) Fluorescence intensity ratio refers to the fluorescence intensity at 340 nm over the fluorescence intensity at 380 nm at a particular time point. The baseline was set as the average of the fluorescent intensity ratios for the first 16 time points before the addition of agonist solution. The maximum response was the highest fluorescent intensity ratio during the 60 time points following addition of agonist solution.
(7) Maximal signal ratios from each well were calculated as output data using the FDSS-3000 analysis program. Data were analyzed using Excel (Microsoft) and XLfit (idbs) software.
Two different agonist solutions with different H2SO4 concentrations were used for the pH assay (FIG. 3A). For one half of a 96-well plate one agonist solution was used, for the other half the other agonist solution. The agonist solutions were obtained by diluting sulfuric acid (H2SO4, 1M) with measuring buffer. The concentrations for the two agonist solutions were determined as described above in Section 2 of Protocol 2.
The sulfuric acid concentrations between the two agonist solutions differed by 0.5 mM. […] After 1:4 dilution of the agonist solutions, the final sulfuric acid concentration was 3.2 mM and 3.3 mM, respectively. The resulting pH value for the pH assay was 5.0 to 5.1.
Test compounds were dissolved in DMSO to yield 1 mM stock solutions. […] The thereby-obtained solutions were further diluted in measuring buffer (1:100) as 10× stock serial dilutions with a DMSO concentration of 1%. 10 μL of a 10× stock was added into each well at step 3.3.(4) of Protocol 2.
Steps (1) and (2) of this Assay were the same as steps 2.2.(1) and 2.2.(2) of Protocol 2, respectively.
(3) The cells were washed twice with 150 μL of measuring buffer (mentioned in 2.2.(3) of Protocol 2, no probenecid). The wells were subsequently refilled with 70 μL of measuring buffer.
(4) Either 10 μl of measuring buffer or 10 μL of 10× stock serial dilution of test compound (described in 3.2. above) were applied to each well. Usually, only one test compound was tested per 96-well plate. The number of replicates per 96-well plate for a particular antagonist at a particular concentration was 7×2 since two different sulfuric acid concentrations were used per 96-well plate (N=7×2) (FIG. 3).
Step (5) was the same as 2.2.(4) above.
(6) Fura-2 fluorescent intensity was monitored as described in 2.2.(5) above. After 16 time points of baseline detection, 20 μL of agonist solution (measuring buffer titrated with H2SO4 to yield pH 5.0-5.1 when mixed 1:4 with the measuring buffer containing test compound) was added to each well (final volume 100 μL/well).
Steps (7) and (8) were as described in 2.2.(6) and 2.2.(7) above, respectively.
(1) The pH values of the buffer in the wells of A1→H1 and A7→H7 (longitudinally; FIG. 3) were measured one by one using a portable pH meter.

[1] = TRPV1/CHO cells, pH 5.0-5.1, read-out: IC50 value by the pH-Based Assay
[2] = TRPV1/CHO cells, pH 5.0-5.1, compounds of the invention, read-out: TRPV1 IC50 Potency (pH-Based Assay), Compound IC50
[3] = TRPV1/CHO cells, pH 5.0-5.1, comparative compounds without the substituted alkyl group, read-out: TRPV1 IC50 Potency (pH-Based Assay), Comparative compound IC50

Sequence of human recombinant TRPV1 (Q8NER1 whole entry): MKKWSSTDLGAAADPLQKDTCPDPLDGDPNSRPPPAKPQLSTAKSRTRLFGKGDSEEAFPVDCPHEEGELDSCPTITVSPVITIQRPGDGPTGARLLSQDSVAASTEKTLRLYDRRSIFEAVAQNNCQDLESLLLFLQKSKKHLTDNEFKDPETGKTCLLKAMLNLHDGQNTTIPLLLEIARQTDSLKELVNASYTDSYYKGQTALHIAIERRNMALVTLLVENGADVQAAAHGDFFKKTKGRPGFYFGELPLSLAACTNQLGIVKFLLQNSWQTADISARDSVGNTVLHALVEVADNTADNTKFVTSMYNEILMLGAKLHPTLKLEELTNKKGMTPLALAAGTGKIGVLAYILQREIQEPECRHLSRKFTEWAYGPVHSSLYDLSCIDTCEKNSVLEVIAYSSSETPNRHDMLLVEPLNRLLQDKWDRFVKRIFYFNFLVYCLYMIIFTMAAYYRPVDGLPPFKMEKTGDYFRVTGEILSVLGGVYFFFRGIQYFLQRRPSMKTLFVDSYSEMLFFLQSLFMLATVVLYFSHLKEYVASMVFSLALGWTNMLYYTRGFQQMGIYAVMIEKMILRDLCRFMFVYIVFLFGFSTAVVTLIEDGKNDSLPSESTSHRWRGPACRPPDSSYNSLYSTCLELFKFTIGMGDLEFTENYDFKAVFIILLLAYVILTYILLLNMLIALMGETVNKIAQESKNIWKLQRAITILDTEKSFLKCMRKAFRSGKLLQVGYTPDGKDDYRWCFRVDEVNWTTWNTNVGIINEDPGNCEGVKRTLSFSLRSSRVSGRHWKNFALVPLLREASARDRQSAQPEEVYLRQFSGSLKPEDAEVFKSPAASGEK

| IC50 [1] | SMILES | also measured |
| --- | --- | --- |
| ≤ 50 nM | Cc1cc(NC(=O)N2CC=C(c3ncc(C[C@H](O)CO)cc3Cl)CC2)ccc1C(F)(F)F [ACG, (S)-4-(3-Chloro-5-(2,3-dihydroxypropyl)pyridin-2-yl)-N-(3-methyl-4-(trifluoromethyl)phenyl)-5,6-dihydropyridine-1(2H)-carboxamide] | – |
| ≤ 50 nM | Cc1cc2nc(NC(=O)N3CCN(c4ncc(C[C@@H](O)CO)cc4F)C[C@@H]3C)sc2cc1C [AET] | – |
| ≤ 50 nM | O=C(Nc1ccc(C(F)(F)F)c(Cl)c1)N1CCC(F)(c2ncc([C@H](O)[C@@H](O)CO)cc2Cl)CC1 [ABG, N-(3-Chloro-4-(trifluoromethyl)phenyl)-4-(3-chloro-5-((1S,2S)-1,2,3-trihydroxypropyl)pyridin-2-yl)-4-fluoropiperidine-1-carboxamide] | – |
| ≤ 50 nM | Cc1cc([C@H](O)[C@@H](O)CO)cnc1C1(F)CCN(C(=O)Nc2ccc(C(F)(F)F)c(Cl)c2)CC1 [ABH, N-(3-Chloro-4-(trifluoromethyl)phenyl)-4-fluoro-4-(3-methyl-5-((1S,2S)-1,2,3-trihydroxypropyl)pyridin-2-yl)piperidine-1-carboxamide] | – |
| ≤ 50 nM | C[C@H]1CN(c2ncc(C[C@@H](O)CO)cc2C(F)(F)F)CCN1C(=O)Nc1nc2ccccc2s1 [AGV] | – |
| ≤ 50 nM | Cc1cc2nc(NC(=O)N3CCN(c4ncc(C[C@H](O)CO)cc4F)C[C@@H]3C)sc2cc1C [AEU] | – |
| ≤ 50 nM | Cc1cc(NC(=O)N2CC=C(c3ncc(C(F)(F)[C@@H](O)CO)cc3Cl)CC2)ccc1C(F)(F)F [ADC, (S)-4-(3-chloro-5-(1,1-difluoro-2,3-dihydroxypropyl)pyridin-2-yl)-N-(3-methyl-4-(trifluoromethyl)phenyl)-5,6-dihydropyridine-1(2H)-carboxamide] | – |
| ≤ 50 nM | C[C@H]1CN(c2ncc(C[C@H](O)CO)cc2F)CCN1C(=O)Nc1nc2cc(F)c(F)cc2s1 [AEZ] | – |

Continued, compound first:

| SMILES | IC50 [1] | also measured |
| --- | --- | --- |
| C[C@H]1CN(c2ncc(C[C@H](O)CO)cc2F)CCN1C(=O)Nc1nc2ccc(F)cc2s1 [AEL] | ≤ 50 nM | – |
| C[C@H]1CN(c2ncc(C[C@H](O)CO)cc2F)CCN1C(=O)Nc1nc2ccc(SC(F)(F)F)cc2s1 [AGR] | ≤ 50 nM | – |
| Cc1ccc2nc(NC(=O)N3CCN(c4ncc(C[C@H](O)CO)cc4F)[C@@H](C)C3)sc2c1 [AFP, (S)-4-(5-((S)-2,3-dihydroxypropyl)-3-fluoropyridin-2-yl)-3-methyl-N-(6-methylbenzo[d]thiazol-2-yl)piperazine-1-carboxamide] | ≤ 50 nM | – |
| O=C(Nc1nc2ccc(C(F)(F)F)cc2s1)N1CCC(F)(c2ncc([C@H](O)[C@H](O)CO)cc2Cl)CC1 | – | IC50 [2]: 171 nM |
| O=C(Nc1ccc(C(F)(F)F)c(Cl)c1)N1CC=C(c2ncc(C[C@H](O)CO)cc2F)CC1 [AAZ, (S)-N-(3-chloro-4-(trifluoromethyl)phenyl)-5-(2,3-dihydroxy-propyl)-3-fluoro-5′,6′-dihydro-[2,4′-bipyridine]-1′(2′H)-carboxamide] | ≤ 50 nM | – |
| O=C(Nc1ccc(C(F)(F)F)cn1)N1CC=C(c2ncc(C[C@@H](O)CO)cc2Cl)CC1 [AAJ, (R)-4-(3-Chloro-5-(2,3-dihydroxypropyl)pyridin-2-yl)-N-(5-(trifluoromethyl)pyridin-2-yl)-5,6-dihydropyridine-1(2H)-carboxamide] | ≤ 50 nM | – |
| O=C(Nc1ccc(C(F)(F)F)cn1)N1CCC(F)(c2ncc([C@H](O)[C@H](O)CO)cc2Cl)CC1 | – | IC50 [2]: 143 nM |
| O=C(Nc1ccc(OC(F)(F)F)c(Cl)c1)N1CC=C(c2ncc(C[C@@H](O)CO)cc2Cl)CC1 | – | IC50 [2]: 17 nM |
| O=C(Nc1ccc(C(F)(F)F)c(Cl)c1)N1CC=C(c2ncccc2Cl)CC1 [drawing 493, reference compound] | – | IC50 [3]: 77 nM |
| O=C(Nc1nc2ccc(C(F)(F)F)cc2s1)N1CCC(F)(c2ncc(C[C@H](O)CO)cc2Cl)CC1 | – | IC50 [2]: 614 nM |
| CO[C@@H]1CN(c2ncc(C[C@@H](O)CO)cc2Cl)CCN1C(=O)Nc1nc2ccc(F)cc2s1 | – | IC50 [2]: 1 nM |
| O=C(Nc1ccc(C(F)(F)F)cn1)N1CC=C(c2ncc(CC(O)CO)cc2Cl)CC1 (stereo not shown) | – | IC50 [2]: 38 nM |
| O=C(Nc1ccc(C(F)(F)F)c(Cl)c1)N1CC=C(c2ncc(CC(O)CO)cc2Cl)CC1 (stereo not shown) | – | IC50 [2]: 10 nM |
| O=C(Nc1nc2cc(F)c(F)cc2s1)N1CCN(c2ncc(C[C@@H](O)CO)cc2F)CC1 [AFA] | – | IC50: ≤ 50 nM |
| O=C(Nc1ccc(C(F)(F)F)c(Cl)c1)N1CC=C(c2ncc(C[C@@H](O)CO)cc2F)CC1 [AAY, (R)-N-(3-chloro-4-(trifluoromethyl)phenyl)-5-(2,3-dihydroxypropyl)-3-fluoro-5′,6′-dihydro-[2,4′-bipyridine]-1′(2′H)-carboxamide] | ≤ 50 nM | – |
| O=C(Nc1nc2ccc(F)cc2s1)N1CC=C(c2ncc(CC(O)CO)cc2Cl)CC1 (stereo not shown) | – | IC50 [2]: 5 nM |

| SMILES | IC50 [1] | also measured |
| --- | --- | --- |
| O=C(Nc1ccc(C(F)(F)F)c(Cl)c1)N1CC=C(c2ncccc2Cl)CC1 [drawing 478, reference compound] | – | IC50 [3]: 139 nM |
| O=C(Nc1nc2ccc(F)cc2s1)N1C2CCC1CN(c1ncc(C[C@H](O)CO)cc1F)C2 [AHB] | ≤ 50 nM | – |
| C[C@H]1CN(C(=O)Nc2nc3ccc(F)cc3s2)CCN1c1ncc(C[C@H](O)CO)cc1F [AFM, (S)-4-(5-((S)-2,3-dihydroxypropyl)-3-fluoropyridin-2-yl)-N-(6-fluorobenzo[d]thiazol-2-yl)-3-methylpiperazine-1-carboxamide] | ≤ 50 nM | – |
| C[C@@H]1CN(c2ncccc2Cl)CCN1C(=O)Nc1nc2ccc(F)cc2s1 [reference compound] | – | IC50 [3]: 24 nM |
| C[C@@H]1CN(c2ncc(C[C@H](O)CO)cc2F)C[C@H](C)N1C(=O)Nc1nc2ccc(F)cc2s1 [AFU] | ≤ 50 nM | – |
| O=C(Nc1nc2ccccc2s1)N1CCN(c2ncc(C[C@H](O)CO)cc2Cl)CC1 [ADS] | ≤ 50 nM | – |
| O=C(Nc1ccc(OC(F)(F)F)cn1)N1CC=C(c2ncc(C(F)(F)[C@@H](O)CO)cc2Cl)CC1 | – | IC50 [2]: 46 nM |
| Cc1cc(NC(=O)N2CCC(F)(c3ncc(C[C@H](O)CO)cc3F)CC2)ccc1OC(F)(F)F [ACR, (S)-4-(5-(2,3-dihydroxypropyl)-3-fluoropyridin-2-yl)-4-fluoro-N-(3-methyl-4-(trifluoromethoxy)phenyl)piperidine-1-carboxamide] | ≤ 50 nM | – |
| O=C(Nc1nc2ccc(F)cc2s1)N1CC=C(c2ncccc2Cl)CC1 [reference compound] | – | IC50 [3]: 943 nM |
| Cc1ccc2nc(NC(=O)N3CCN(c4ncc(C[C@@H](O)CO)cc4F)[C@@H](C)C3)sc2c1 [AFO, (S)-4-(5-((R)-2,3-dihydroxypropyl)-3-fluoropyridin-2-yl)-3-methyl-N-(6-methylbenzo[d]thiazol-2-yl)piperazine-1-carboxamide] | ≤ 50 nM | – |
| O=C(Nc1nc2ccc(F)cc2s1)N1CC=C(c2ncc(C[C@H](O)CO)cc2Cl)CC1 [AAH] | ≤ 50 nM | – |
| C[C@H]1CN(c2ncc(C[C@@H](O)CO)cc2F)CCN1C(=O)Nc1nc2ccc(F)cc2s1 [AEJ] | ≤ 50 nM | – |
| O=C(Nc1ccc(C(F)(F)F)cc1)N1CC=C(c2ncc(CC(O)CO)cc2Cl)CC1 (stereo not shown) | – | IC50 [2]: 12 nM |
| C[C@H]1CN(C(=O)Nc2nc3cc(F)c(F)cc3s2)CCN1c1ncc(C[C@H](O)CO)cc1F [AGL] | ≤ 50 nM | – |
| C[C@@H]1CN(c2ncc(C[C@H](O)CO)cc2F)CCN1C(=O)Nc1nc2ccccc2s1 [AGX] | ≤ 50 nM | – |
| O=C(Nc1nc2ccc(F)cc2s1)N1CC=C(c2ncc(C[C@@H](O)CO)cc2Cl)CC1 [AAL, (R)-4-(3-Chloro-5-(2,3-dihydroxypropyl)pyridin-2-yl)-N-(6-fluorobenzo[d]thiazol-2-yl)-5,6-dihydropyridine-1(2H)-carboxamide] | ≤ 50 nM | – |
